Data published in US12274731B1, “Polybasic antimalarial agents and methods of use thereof” (priority 2018, dated 2025).
Where two headings read alike, the source gives them in different places.

What was measured:
[1] = tested on: Plasmodium falciparum (Dd2 and Nf54); assay: P. falciparum growth assay / dose-response in human erythrocyte culture (parasitemia after 72 h, acridine orange, FACS); assay type: cell-based; settings: for parasite growth (endpoint parasitemia, percentage of control): 72-hour treatment, equal concentrations in the media; for IC50: P. falciparum in human erythrocytes, about 72 hours post compound addition
Text: FIG. 4A-FIG. 4D. […] DHHC8 transcript codes for five consecutive lie-residues. Levels of each transcript are normalized to total ribosome levels and represented as a ratio of transcript levels under Ile starvation (−Ile) over the control conditions (+Ile). […] Western blot analysis of Ile starved (−Ile), and control (+Ile) sample are normalized to PfHAD1 (PF3D7_1033400) levels. HA-tagged P. falciparum Pelo protein was CRISPR/Cas9 engineered and detected using mouse HA-antibody. The molecular weight of each protein is indicated. […] (D) P. falciparum growth assay in the presence of different compounds and amino acid polymers. Data represent endpoint parasitemia after 72-hour treatment with the indicated compound. Results are normalized to non-treated cultures (control) and presented as a percentage of control samples. Average value from three biological replicates is reported with standard deviation.
The lack of P. falciparum taxis during invasion of host cells, alterations in cytoadhesive properties of infected erythrocytes and previously shown invasion-blocking effects of heparin prompted testing whether poly-lysine repeats in P. falciparum membrane proteins contribute to the overall efficiency of parasite invasion of host erythrocytes.
For FIG. 21-FIG. 25, the general procedure for the drug assays included a total sample volume of 200 μl, every concentration was performed in triplicate, hematocrit was 2%, and starting parasitemia was 1%. The starting concentration of drug was 100 μg/ml and the serial dilution was made from the starting concentration. The end concentration was 0.39 μg/ml). The control represents growth of the parasite culture without added drug. All samples were subjected to Acridine orange staining and the FACS analysis was done on 96 well plates. FlowJo was used to calculate parasitemia.
Dose-response experiments were performed in triplicate with mixed culture of P. falciparum (1.0%-1.2% starting parasitemia). Parasitemias (percentage of total erythrocytes infected with parasites) were measured approximately 72 hours post compound addition by nucleic acid staining of infected red blood cells with 0.8 mg/ml acridine orange in PBS. Inhibition data were fit to a sigmoidal dose-response curve was done using Graphpad Prism 5.0.

[2] = tested on: uninfected human cells; assay: Binding to uninfected human cells (fluorescence microscopy); assay type: cell-based
Description: Here, the same procedure as for above (FIG. 19) was performed for the cell culture, except for the incubation volume was 1 ml in PBS and the images were taken on a lab microscope.

[3] = tested on: mCherry labelled P. berghei; assay: Treatment of mice infected with mCherry labelled P. berghei; assay type: in vivo; settings: 4 doses, over 7 days of infection
Text: Intraperitoneal treatment of mice results in the reduction of parasitemia over 2 days (see e.g., FIG. 25).

[4] = tested on: human erythrocytes; assay: Hemolysis in erythrocyte culture; assay type: cell-based; settings: at IC50
[5] = Structure preservation of crystalline PLL; assay type: physicochemical; settings: 37° C.

Substance	activity against Plasmodium / malaria [1]	parasite growth (endpoint parasitemia, percentage of control) [1]	binding to other human cells (uninfected human cells) [2]	IC50 [1]	other results
10-L-lysines (SEQ ID NO: 4): Poly (L) lysine of 10 residues in length, from Alamanda polymers (KKKKKKKKKK; Synthetic polybasic peptide)	no activity	–	–	–	–
poly-L-ornithine	–	efficient reduction of parasite growth	do not detectably bind	–	–
heparin	–	inhibiting parasite growth	–	12 µg/mL	–
poly-L-lysine	–	efficient reduction of parasite growth	do not detectably bind	9 µg/mL	parasitemia [3]: reduces parasitemia; hemolysis [4]: without hemolysis; structure preservation [5]: preserves structure
poly-ε-L-lysine	not shown to be effective	–	–	–	activity against Plasmodium / malaria ([1]; listed as Epsilon poly-lysine): did not appear to have activity
poly-glutamate	–	did not affect the growth of parasites	–	–	–
